Laboratory results published in paper PMC5428509, “Irreversible inhibition of BTK kinase by a novel highly selective inhibitor CHMFL-BTK-11 suppresses inflammatory response in rheumatoid arthritis model” (Scientific Reports, 2017).

Assays:
Assay in all cases: biochemical
Parameters in all cases: KinomeScan competition binding panel (DiscoveRx), percent of control at 1 uM
Conditions in all cases: read-out: Percent Control
ACVR1 = ACVR1 (Homo sapiens, UniProt Q04771)
Source text: (§1) In order to further confirm the binding mode, we then tested the compounds in the BTK wild-type (wt) and BTK C481S mutant with immunoblotting by looking at the BTK Y551 auto-phosphorylation. […] In addition, a covalent bond was preferred to form between the […] acrylamide and Cys-481 near the hinge binding area, which further confirmed its irreversible binding mode (Fig. 1d). We next investigated CHMFL-BTK-11′s selectivity profile in 456 kinases/mutants with KinomeScan^TM technology.

PAK4 = PAK4 (Homo sapiens, UniProt O96013)
Source text: as §1

CAMK2A = CAMK2A (Homo sapiens, UniProt Q9UQM7)
Source text: as §1

PRP4 = target: T1, PRP4 (Homo sapiens, UniProt Q13523)
T1 construct: gene PRPF4B
Source text: as §1

BTK = BTK (Homo sapiens, UniProt Q06187)
Source text: as §1

MET(Y1235D) = MET(Y1235D) (Homo sapiens, UniProt P08581, Y1235D)
Source text: as §1

ERK5 = target: T2, ERK5 (Homo sapiens, UniProt Q13164)
T2 construct: gene MAPK7
Source text: as §1

PRKG2 = PRKG2 (Homo sapiens, UniProt Q13237)
Source text: as §1

PRKG1 = PRKG1 (Homo sapiens, UniProt Q13976)
Source text: as §1

LYN = LYN (Homo sapiens, UniProt P07948)
Source text: as §1

GCN2(Kin.Dom.2,S808G) = target: T3, GCN2(Kin.Dom.2,S808G) (Homo sapiens, UniProt Q9P2K8, S808G)
T3 construct: gene EIF2AK4; Kin.Dom.2
Source text: as §1

[1] = target: T4, ABL1(H396P)-phosphorylated (Homo sapiens, UniProt P00519, H396P)
T4 construct: phosphorylated
Source text: as §1

PLK2 = PLK2 (Homo sapiens, UniProt Q9NYY3)
Source text: as §1

EPHA6 = EPHA6 (Homo sapiens, UniProt Q9UF33)
Source text: as §1

CDKL3 = CDKL3 (Homo sapiens, UniProt Q8IVW4)
Source text: as §1

MAP3K1 = MAP3K1 (Homo sapiens, UniProt Q13233)
Source text: as §1

PRKX = PRKX (Homo sapiens, UniProt P51817)
Source text: as §1

CDK5 = CDK5 (Homo sapiens, UniProt Q00535)
Source text: as §1

MLK2 = target: T5, MLK2 (Homo sapiens, UniProt Q02779)
T5 construct: gene MAP3K10
Source text: as §1

MST2 = target: T6, MST2 (Homo sapiens, UniProt Q13188)
T6 construct: gene STK3
Source text: as §1

LRRK2 = LRRK2 (Homo sapiens, UniProt Q5S007)
Source text: as §1

EPHA7 = EPHA7 (Homo sapiens, UniProt Q15375)
Source text: as §1

EPHA8 = EPHA8 (Homo sapiens, UniProt P29322)
Source text: as §1

GSK3B = GSK3B (Homo sapiens, UniProt P49841)
Source text: as §1

CSNK1G2 = CSNK1G2 (Homo sapiens, UniProt P78368)
Source text: as §1

Sequence of EPHA8 (P29322 whole entry): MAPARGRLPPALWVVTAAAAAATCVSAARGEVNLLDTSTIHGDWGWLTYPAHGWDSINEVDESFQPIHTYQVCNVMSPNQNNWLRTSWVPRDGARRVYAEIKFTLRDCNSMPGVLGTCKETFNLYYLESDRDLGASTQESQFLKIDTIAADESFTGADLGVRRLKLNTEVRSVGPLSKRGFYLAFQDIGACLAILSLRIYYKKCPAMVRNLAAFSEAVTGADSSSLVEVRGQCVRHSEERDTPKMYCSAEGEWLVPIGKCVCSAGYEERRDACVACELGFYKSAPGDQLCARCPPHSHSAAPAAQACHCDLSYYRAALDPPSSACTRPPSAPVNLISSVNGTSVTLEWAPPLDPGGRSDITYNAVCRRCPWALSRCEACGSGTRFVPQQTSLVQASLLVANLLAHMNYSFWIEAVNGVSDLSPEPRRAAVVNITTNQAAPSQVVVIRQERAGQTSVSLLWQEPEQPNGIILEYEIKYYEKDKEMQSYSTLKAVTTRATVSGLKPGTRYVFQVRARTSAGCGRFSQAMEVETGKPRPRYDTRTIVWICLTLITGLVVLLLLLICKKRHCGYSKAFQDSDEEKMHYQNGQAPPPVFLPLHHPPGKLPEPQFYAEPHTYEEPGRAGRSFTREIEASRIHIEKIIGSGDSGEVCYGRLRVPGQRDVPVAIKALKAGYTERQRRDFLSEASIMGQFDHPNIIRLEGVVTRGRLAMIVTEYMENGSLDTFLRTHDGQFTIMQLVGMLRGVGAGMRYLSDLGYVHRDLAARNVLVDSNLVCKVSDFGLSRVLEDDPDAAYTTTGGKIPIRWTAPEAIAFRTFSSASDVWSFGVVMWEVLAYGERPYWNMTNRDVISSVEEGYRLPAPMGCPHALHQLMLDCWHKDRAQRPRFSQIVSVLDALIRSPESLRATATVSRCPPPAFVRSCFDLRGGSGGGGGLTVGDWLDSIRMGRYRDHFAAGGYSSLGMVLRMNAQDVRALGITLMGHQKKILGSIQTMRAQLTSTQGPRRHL
Sequence of PRKG2 (Q13237 whole entry): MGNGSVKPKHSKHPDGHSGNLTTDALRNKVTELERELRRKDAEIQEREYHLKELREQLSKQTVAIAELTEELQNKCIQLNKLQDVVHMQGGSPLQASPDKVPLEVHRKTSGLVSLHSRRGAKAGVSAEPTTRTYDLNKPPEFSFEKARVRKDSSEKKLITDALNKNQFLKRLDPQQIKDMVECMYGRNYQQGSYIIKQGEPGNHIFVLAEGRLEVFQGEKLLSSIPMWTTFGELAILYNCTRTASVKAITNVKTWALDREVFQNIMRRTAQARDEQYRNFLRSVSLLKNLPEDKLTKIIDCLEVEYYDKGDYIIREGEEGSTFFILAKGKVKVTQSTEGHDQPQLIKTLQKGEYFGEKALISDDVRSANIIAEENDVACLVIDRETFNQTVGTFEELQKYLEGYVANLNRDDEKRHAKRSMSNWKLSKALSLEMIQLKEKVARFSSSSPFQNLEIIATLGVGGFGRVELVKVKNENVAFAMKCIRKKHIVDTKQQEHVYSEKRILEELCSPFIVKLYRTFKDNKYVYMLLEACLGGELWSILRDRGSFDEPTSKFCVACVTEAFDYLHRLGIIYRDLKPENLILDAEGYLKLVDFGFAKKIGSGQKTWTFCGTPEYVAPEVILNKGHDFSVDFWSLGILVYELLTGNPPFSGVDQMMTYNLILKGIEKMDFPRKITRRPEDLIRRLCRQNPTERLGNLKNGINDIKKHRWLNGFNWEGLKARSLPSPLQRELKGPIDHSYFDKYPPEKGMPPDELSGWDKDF
Sequence of CSNK1G2 (P78368 whole entry): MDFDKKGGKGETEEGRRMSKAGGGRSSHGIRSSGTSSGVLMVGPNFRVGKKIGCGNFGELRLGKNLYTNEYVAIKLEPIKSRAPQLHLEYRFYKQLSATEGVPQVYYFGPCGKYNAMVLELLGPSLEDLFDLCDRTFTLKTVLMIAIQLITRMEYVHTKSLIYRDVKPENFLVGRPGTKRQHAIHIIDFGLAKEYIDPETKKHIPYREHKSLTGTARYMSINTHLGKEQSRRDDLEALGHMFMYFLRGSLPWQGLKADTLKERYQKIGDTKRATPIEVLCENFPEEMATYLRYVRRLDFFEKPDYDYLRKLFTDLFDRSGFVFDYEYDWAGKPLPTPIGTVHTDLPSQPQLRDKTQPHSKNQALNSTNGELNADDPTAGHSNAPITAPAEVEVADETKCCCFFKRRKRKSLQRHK
Sequence of CDKL3 (Q8IVW4 whole entry): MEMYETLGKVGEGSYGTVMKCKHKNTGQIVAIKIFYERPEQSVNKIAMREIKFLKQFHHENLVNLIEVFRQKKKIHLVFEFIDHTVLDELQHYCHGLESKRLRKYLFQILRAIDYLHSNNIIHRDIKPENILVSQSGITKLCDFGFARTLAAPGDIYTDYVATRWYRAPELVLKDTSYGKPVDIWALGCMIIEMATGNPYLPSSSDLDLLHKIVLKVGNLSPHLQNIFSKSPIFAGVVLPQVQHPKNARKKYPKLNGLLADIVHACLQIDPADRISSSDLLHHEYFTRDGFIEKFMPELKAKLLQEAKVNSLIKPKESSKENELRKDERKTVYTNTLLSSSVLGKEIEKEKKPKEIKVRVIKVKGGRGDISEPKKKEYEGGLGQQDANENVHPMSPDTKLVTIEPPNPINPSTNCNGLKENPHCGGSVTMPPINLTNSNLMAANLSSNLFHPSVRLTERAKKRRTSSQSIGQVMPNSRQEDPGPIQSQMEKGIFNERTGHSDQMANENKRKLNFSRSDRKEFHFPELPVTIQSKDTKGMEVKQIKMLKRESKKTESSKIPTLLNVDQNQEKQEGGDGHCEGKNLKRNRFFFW
Sequence of CAMK2A (Q9UQM7 whole entry): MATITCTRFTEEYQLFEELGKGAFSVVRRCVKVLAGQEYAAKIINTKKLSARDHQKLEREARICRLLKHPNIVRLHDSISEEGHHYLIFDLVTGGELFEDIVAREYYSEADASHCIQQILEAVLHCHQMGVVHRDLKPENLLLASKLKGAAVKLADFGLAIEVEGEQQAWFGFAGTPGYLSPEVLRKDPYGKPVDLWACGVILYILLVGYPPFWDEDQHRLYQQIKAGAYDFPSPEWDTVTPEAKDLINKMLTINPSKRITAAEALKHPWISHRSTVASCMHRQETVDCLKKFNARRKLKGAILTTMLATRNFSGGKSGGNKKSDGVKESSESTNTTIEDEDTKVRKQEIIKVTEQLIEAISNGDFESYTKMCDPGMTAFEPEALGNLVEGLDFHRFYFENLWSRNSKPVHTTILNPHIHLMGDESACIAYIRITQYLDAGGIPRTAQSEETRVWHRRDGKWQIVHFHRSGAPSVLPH
Sequence of EPHA6 (Q9UF33 whole entry): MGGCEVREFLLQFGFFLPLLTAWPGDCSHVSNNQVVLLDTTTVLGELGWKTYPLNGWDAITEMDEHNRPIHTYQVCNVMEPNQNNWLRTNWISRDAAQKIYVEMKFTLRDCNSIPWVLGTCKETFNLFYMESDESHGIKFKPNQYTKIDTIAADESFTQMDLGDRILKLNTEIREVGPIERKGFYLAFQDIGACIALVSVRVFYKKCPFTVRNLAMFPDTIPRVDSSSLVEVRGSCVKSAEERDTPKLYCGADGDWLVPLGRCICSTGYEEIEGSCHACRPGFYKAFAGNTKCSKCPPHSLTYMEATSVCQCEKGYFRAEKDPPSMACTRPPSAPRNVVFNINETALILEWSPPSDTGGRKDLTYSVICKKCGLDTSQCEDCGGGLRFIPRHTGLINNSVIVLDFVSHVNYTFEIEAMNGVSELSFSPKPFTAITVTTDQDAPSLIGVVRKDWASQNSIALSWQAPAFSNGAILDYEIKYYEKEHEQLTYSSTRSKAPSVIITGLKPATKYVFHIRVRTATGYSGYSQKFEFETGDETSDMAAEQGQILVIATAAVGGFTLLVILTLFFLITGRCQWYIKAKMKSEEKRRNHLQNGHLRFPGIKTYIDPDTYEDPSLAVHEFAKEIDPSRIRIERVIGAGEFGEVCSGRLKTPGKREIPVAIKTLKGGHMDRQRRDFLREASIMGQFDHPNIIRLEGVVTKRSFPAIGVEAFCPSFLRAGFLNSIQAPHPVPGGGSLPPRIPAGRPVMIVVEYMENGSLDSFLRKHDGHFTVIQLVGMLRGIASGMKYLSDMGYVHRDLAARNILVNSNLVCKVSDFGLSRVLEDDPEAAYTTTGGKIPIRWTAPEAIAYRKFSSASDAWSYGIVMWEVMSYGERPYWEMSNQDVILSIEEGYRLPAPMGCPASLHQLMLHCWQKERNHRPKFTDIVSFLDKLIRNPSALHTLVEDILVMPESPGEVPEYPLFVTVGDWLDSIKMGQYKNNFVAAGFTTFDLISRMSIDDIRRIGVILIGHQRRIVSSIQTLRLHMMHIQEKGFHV
Sequence of LYN (P07948 whole entry): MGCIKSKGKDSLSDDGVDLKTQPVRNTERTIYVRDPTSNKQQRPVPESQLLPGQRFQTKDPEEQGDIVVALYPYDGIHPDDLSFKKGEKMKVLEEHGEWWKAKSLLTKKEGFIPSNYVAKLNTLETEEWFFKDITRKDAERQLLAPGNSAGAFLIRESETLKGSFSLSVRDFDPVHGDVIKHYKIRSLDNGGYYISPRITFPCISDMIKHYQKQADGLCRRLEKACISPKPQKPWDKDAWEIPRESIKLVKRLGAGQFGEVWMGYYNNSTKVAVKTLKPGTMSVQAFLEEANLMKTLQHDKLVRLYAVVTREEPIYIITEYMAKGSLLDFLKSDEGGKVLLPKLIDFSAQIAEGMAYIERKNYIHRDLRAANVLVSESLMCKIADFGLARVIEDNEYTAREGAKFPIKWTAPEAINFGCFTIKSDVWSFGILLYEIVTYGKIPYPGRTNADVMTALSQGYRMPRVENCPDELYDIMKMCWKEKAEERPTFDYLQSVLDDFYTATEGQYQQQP

In the case of C=CC(=O)Nc1cc(-n2c(=O)ccc3cnc4ccc(-n5cccn5)cc4c32)ccc1C [CHMFL-BTK-11], the remaining binding at 1 µM (ACVR1) is reported as 100%, the remaining binding at 1 µM (PAK4) is reported as 95% and the remaining binding at 1 µM (CAMK2A) is reported as 100%. It also gave a remaining binding at 1 µM (PRP4) of 93%, a remaining binding at 1 µM (BTK) of 8.2% and a remaining binding at 1 µM (MET(Y1235D)) of 100%. It also gave a remaining binding at 1 µM (ERK5) of 100%, a remaining binding at 1 µM (PRKG2) of 98% and a remaining binding at 1 µM (PRKG1) of 100%. The remaining binding at 1 µM (LYN) was 94%, the remaining binding at 1 µM (GCN2(Kin.Dom.2,S808G)) was 100% and the remaining binding at 1 µM [1] was 100%. For the same compound, the remaining binding at 1 µM (PLK2) was 91%, the remaining binding at 1 µM (EPHA6) was 100% and the remaining binding at 1 µM (CDKL3) was 90%. For the same compound, the remaining binding at 1 µM (MAP3K1) was 100%, the remaining binding at 1 µM (PRKX) was 100% and the remaining binding at 1 µM (CDK5) was 100%. The remaining binding at 1 µM (MLK2) was 94%, the remaining binding at 1 µM (MST2) was 97% and the remaining binding at 1 µM (LRRK2) was 96%. It also gave a remaining binding at 1 µM (EPHA7) of 97%, a remaining binding at 1 µM (EPHA8) of 92% and a remaining binding at 1 µM (GSK3B) of 100%. The remaining binding at 1 µM (CSNK1G2) was 100%.
